{"source": "patent US11028084B2", "about": "“Selective inhibitors of gentotoxic steress-induced IKK/NF-κB pathways” (Max-Delbrück-Centrum für Molekulare Medizin in der …, priority 2016, dated 2021)", "key": {"ATM": {"target": "T1, ATM (Homo sapiens, UniProt Q13315)", "T1 construct": "endogenous in cells; host or cells: HepG2", "T1 sequence (Q13315 whole entry)": "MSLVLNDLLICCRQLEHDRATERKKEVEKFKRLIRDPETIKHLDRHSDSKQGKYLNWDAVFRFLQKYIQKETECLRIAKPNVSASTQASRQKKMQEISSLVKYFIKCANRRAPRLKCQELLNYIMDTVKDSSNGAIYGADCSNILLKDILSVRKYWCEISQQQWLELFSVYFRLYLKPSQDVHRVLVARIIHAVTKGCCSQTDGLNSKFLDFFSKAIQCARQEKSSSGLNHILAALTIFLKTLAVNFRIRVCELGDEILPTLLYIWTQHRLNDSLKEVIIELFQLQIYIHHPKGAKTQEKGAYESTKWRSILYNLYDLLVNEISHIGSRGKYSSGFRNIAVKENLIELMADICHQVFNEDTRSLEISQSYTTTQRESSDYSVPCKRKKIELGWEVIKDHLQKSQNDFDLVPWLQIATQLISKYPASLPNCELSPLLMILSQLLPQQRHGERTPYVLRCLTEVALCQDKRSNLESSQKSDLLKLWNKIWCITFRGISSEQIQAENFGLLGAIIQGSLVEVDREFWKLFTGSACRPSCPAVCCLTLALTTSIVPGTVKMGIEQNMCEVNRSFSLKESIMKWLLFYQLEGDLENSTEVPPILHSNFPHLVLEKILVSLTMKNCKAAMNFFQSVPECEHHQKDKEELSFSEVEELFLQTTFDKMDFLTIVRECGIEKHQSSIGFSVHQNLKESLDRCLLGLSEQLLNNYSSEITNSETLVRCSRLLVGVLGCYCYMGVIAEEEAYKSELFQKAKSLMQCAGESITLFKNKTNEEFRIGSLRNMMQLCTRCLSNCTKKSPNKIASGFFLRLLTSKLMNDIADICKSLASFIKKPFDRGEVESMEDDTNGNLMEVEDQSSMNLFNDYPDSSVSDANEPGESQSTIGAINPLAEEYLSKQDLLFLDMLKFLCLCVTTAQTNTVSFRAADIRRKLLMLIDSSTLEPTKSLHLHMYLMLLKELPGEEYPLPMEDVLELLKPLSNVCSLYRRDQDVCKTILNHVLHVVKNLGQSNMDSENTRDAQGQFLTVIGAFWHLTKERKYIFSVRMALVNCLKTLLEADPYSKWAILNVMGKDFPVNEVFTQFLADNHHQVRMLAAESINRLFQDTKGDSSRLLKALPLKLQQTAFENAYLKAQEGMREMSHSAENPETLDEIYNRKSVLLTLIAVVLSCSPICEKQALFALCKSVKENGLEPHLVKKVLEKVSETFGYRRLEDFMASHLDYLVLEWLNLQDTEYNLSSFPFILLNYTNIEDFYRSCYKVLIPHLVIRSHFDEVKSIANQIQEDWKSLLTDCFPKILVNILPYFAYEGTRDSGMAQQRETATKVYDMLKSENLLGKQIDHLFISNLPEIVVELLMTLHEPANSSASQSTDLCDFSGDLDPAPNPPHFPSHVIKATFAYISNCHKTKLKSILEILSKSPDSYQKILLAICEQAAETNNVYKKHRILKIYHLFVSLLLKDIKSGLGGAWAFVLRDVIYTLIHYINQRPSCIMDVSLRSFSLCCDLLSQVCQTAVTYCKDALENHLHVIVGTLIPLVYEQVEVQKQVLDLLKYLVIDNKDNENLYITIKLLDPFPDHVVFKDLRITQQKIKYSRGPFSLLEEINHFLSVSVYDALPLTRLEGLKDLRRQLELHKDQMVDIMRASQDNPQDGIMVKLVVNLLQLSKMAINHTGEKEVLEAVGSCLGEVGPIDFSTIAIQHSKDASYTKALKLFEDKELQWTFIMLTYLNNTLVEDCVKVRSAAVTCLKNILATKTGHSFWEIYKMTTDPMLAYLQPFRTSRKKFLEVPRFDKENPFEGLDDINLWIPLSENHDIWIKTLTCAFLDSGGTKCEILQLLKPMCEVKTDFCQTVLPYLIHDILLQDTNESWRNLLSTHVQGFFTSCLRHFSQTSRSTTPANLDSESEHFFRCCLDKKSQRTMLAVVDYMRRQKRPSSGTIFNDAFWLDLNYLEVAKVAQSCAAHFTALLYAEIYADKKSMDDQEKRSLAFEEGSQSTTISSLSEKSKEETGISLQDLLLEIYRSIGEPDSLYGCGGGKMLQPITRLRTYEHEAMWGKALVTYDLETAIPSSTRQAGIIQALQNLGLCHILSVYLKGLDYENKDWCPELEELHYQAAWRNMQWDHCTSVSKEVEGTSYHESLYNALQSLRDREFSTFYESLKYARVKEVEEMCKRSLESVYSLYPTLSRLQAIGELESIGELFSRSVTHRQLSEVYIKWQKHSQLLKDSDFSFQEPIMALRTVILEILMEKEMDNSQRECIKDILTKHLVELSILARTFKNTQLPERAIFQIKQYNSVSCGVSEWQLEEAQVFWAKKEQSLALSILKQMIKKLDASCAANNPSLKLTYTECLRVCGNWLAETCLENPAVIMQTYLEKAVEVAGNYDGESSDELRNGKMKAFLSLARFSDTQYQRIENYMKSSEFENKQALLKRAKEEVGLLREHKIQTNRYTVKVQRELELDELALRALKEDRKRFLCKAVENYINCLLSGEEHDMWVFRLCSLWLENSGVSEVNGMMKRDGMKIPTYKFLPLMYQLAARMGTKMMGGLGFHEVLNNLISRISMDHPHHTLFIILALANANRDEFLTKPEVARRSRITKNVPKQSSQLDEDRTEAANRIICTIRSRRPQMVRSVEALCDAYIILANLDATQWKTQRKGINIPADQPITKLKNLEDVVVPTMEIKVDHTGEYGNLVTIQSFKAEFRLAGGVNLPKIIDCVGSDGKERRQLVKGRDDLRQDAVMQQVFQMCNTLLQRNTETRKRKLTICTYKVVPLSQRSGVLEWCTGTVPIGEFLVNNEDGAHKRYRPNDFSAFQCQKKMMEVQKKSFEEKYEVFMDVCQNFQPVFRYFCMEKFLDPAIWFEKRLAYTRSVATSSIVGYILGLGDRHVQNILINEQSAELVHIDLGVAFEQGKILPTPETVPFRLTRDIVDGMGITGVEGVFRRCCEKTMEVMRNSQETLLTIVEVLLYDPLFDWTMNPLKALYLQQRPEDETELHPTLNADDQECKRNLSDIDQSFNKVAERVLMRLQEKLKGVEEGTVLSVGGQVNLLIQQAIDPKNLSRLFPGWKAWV", "test": "Enzymatic activity of ATM in γ-irradiated HepG2 cells, WB of ATM and substrate phosphorylation", "type": "cell-based", "protocol": "FIG. 9: HepG2 cells were pre-incubated with DMSO, MW01 (5 μM) or the ATM inhibitor Ku55933 (10 μM) and irradiated. After 60 min cells were harvested and processed. Immunochemical staining of Western blotting membranes was done using indicated antibodies."}, "[1]": {"test_system": "genotoxic stress-induced NF-κB signaling", "test": "Etoposide-induced p65 nuclear translocation, immunofluorescence / high content screening in U2OS cells", "type": "cell-based, human", "protocol": "(§1) FIG. 2: U2OS cells were pre-treated and incubated with DMSO or MW01. DNA damage was induced by administration of etoposide. After 2 h cells were fixed, nuclei were stained with DAPI. p65 and phospho-H2AX, which is indicative for DNA DSB, were stained by immunofluorescence. Images were taken at a confocal Zeiss 710 LSM with a 40× oil objective.\nFIG. 3: (A) U2OS cells were pre-treated with increasing concentrations of MW01 in duplicates in a 384 well plate. Then, cells were treated with etoposide, fixed and subjected to IF of p65. Spatial measurement of p65 cytosolic and nuclear localisation was used for calculation of p65 translocation rates. (B) U2OS cells were pre-treated with DMSO, MW01 and irradiated with γ-IR. After 90 min cells were lysed and subjected to SDS-PAGE/WB and EMSA. (C) Cells were pre-treated with different concentrations of MW01 as indicated, treated with γ-IR (C) or etoposide (D) and subjected to WB or EMSA, respectively. LDH in (C) represents the loading control.\nGenotoxic stress was applied by ionizing irradiation of cells with a Cs137 source (0629 Irradiator, STS Braunschweig), or by inhibition of the topoisomerase II enzyme by administration of etoposide at concentrations between 20-50 μM for 2 h.\nFor immunofluorescence staining 0.95×10^5 cells were seeded in 6 well plates onto autoclaved cover slips. Cellular confluency dictated to beginning of the experiment (2-3 days from seeding). After conduction of experiments cells were washed with PBS and fixed with 4% PFA/double-distilled H2O (ddH2O) for 10 min at RT. Following two additional washing steps cells were incubated with a solution containing 0.12% glycine/0.2% saponin in PBS for 10 min and then blocked with a solution containing 10% FCS/0.2% saponin in PBS for 1 h. Primary antibody incubation was performed overnight at 4° C. (1:500 diluted in 0.2% saponin in PBS). The next day, cover slips were washed five times with a solution containing 0.2% saponin in PBS. Fluorophor-coupled secondary antibodies (1:1000 diluted in 0.2% saponin in PBS) were incubated for 1 h (hour) at RT. Nuclei were stained using 0.2 mg/ml DAPI in PBS for […] or by directly mounting with DAPI/Mowiol. Finally, the cover slips were washed five times with 0.2% saponin in PBS and two times with ddH2O. Confocal microscopy was performed using a Zeiss 710 LSM with a 40× or a 63× oil objective.\nIn order to identify specific inhibitors of the DNA damage-induced NF-κB pathway, a differential screening assay was designed. The primary screening for inhibitors of genotoxic stress-induced NF-κB signaling utilised a library of compounds from ChemBioNet and donated compounds of academic chemists. DNA damage was applied by application of etoposide. All compounds which inhibited p65 nuclear translocation were taken for subsequent counter screening. For the counter screening administration of TNFα was used to induce canonical NF-κB signaling. All substances inhibiting TNFα-induced canonical NF-κB activation were discarded from the list of potential DNA damage-pathway specific substances."}, "MEF cells": {"test_system": "MEF cells", "test": "Annexin V staining, flow cytometry, MEF cells", "type": "cell-based, mouse", "protocol": "FIG. 16: (A) U2OS cells were pre-treated with DMSO or MW01 and irradiated. Cells were lysed 8 h post γ-IR and were used for western blotting and immunochemical staining. (B) HEK293 cells were pre-treated with DMSO or MW01 and irradiated. After 48 h cells were fixed and stained with crystal violet. Dissolved crystal violet was used for absorbance measurement in a visible light spectrophotometer at a wavelength of 595 nm. (C) HEK293 cells were pre-treated with DMSO or MW01 and irradiated. The percentage of viable cells within the population was calculated by exclusion of annexin V and propidium-iodide positive cells measured by flow cytometry. (D) MEF cells were pre-treated with DMSO or MW01 and irradiated. Cells were used for annexin V staining 24 h and 48 after γ-IR. Percentage of annexin V positive cell population was analysed using a flow cytometer. (E) Experiment done as shown in (D) but with HT1080 cells processed 8 h after irradiation. Statistical significance was calculated using students t-test.\nCells were washed with ice-cold PBS and detached from growing dishes using Trypsin/EDTA solution. Detached cells were centrifuged at 300×g for 5 min. Detection of early apoptotic cells was performed by staining with annexin V-FITC antibody according to manufacturer's instructions (eBioscience Annexin V-FITC Apoptosis detection Kit). Necroptotic and late apoptotic cells were stained by addition of propidium iodide (final concentration 1 μg/ml) prior to measurements.\nThe sensitising effect of MW01 on cells was tested in MEF cells with a low irradiation dose of 2 Gy, an amount cells are able to repair. Cells were pre-treated with MW01, irradiated and cells were analysed by annexin V staining 24 or 48 h after irradiation. After 24 h, the treatment of cells with MW01 led to an increase of annexin V positive cells of about 10%. […] Comparing the annexin V positive cells of MW01 treated and MW01/γ-IR co-treated samples, a sensitising effect for low γ-irradiation dose-induced apoptosis of about 12% was found (FIG. 16 D)."}, "[2]": {"test_system": "TNFα-induced NF-κB activation", "test": "NF-κB DNA binding activity (EMSA) after TNFα stimulation, HEK293 cells", "type": "cell-based, human", "protocol": "FIG. 4: (A) U2OS cells were pre-treated with increasing concentrations of MW01 in triplicates in a 384 well plate. Then, cells were treated with TNFα, fixed and subjected to IF staining of p65. Spatial measurement of p65 cytosolic and nuclear signals was used for the calculation of p65 translocation rates. (B) U2OS cells were pre-treated with MW01 at concentrations of 10 or 20 μM and stimulated with TNFα. Cell lysates were subjected to SDS-PAGE/WB. (C) HEK293 cells were pre-treated with DMSO or MW01 followed by administration of etoposide or TNFα. Cell lysates were used for EMSA.\nFor the activation of the canonical NF-κB pathway cells were treated with recombinant human TNFα (10 ng/ml) or IL-1β (10 ng/ml) for 20-30 min at 37° C.\nNuclear or whole cell lysates were incubated with a ^32P-labeled NF-κB DNA-[…]"}, "[3]": {"test_system": "ATM substrate histone H2AX", "test": "Phospho-H2AX immunofluorescence after etoposide, U2OS cells", "type": "cell-based, human", "details": "after etoposide treatment", "protocol": "as §1"}, "[4]": {"details": "HepG2, γ-irradiation, 60 min, MW01 5 μM, Ku55933 10 μM"}}, "note": "“Also recorded” adds a separate entry of the source.", "data": [{"smiles": "COc1ccc2c(c1OC)c(=O)n1c3ccc(O)cc3c3ccnc2c31", "note": "[MW01, 12-hydroxy-6,7-dimethoxy-8H-benzo[c]indolo[3,2,1-ij][1,5]naphthyridin-8-one]", "values": [{"measurement": "ATM auto-phosphorylation and phosphorylation of the ATM substrates p53 and KAP1", "setting": "ATM; [4]", "value": "no effects"}, {"measurement": "phosphorylation state of p53bp1", "setting": "ATM; [4]", "value": "mild effects"}, {"measurement": "enzymatic activity of ATM", "setting": "ATM; conclusion from auto-phosphorylation and substrate phosphorylation", "value": "not affected"}, {"measurement": "IC50", "setting": "[1]; Homo sapiens, U2OS, etoposide-induced p65 nuclear translocation, high content screening", "value": 460, "unit": "nM"}, {"measurement": "calculated Hill coefficient", "setting": "[1]; IC50 determination assay", "value": "−0.9"}, {"measurement": "percentage in activity change (as recorded in IC50 determination assay)", "setting": "[1]; etoposide", "value": 120, "unit": "%"}, {"measurement": "concentration sufficient for maximal inhibition of p65 nuclear translocation", "setting": "[1]; etoposide stimulation, U2OS", "value": 5, "unit": "µM"}, {"measurement": "inhibition of etoposide-induced p65 nuclear translocation / NF-κB activation", "setting": "[1]; etoposide, U2OS", "value": "inhibited NF-κB activation in response to etoposide stimulation; also recorded: inhibited the nuclear translocation of p65 upon etoposide stimulation in a concentration dependent manner"}, {"measurement": "increase of annexin V positive cells", "setting": "MEF cells; 24 h, without IR", "value": "about 10%"}, {"measurement": "sensitising effect for low γ-irradiation dose-induced apoptosis", "setting": "MEF cells; MW01 vs MW01/γ-IR co-treated samples", "value": "about 12%"}, {"measurement": "annexin V staining of cells", "setting": "MEF cells; after 2 Gy of γ-irradiation", "value": "circa 34%"}, {"measurement": "induced NF-κB DNA binding activity upon TNFα stimulation", "setting": "[2]", "value": "did not interfere with induced NF-κB DNA binding activity"}, {"measurement": "phosphorylation of the ATM substrate histone H2AX", "setting": "[3]", "value": "did not lead to impaired phosphorylation"}]}]}
